These results are taken from US20240238278A1, “Pharmaceutical Composition for Preventing or Treating Fibrosis” (Daewoong Pharmaceutical Co., Ltd., priority 2021, published 2024).

Data set [1] relates to animal model of pulmonary fibrosis. Nature of the data set: Lung function evaluation (SpO2) in BLM animal model. The settings on record: BLM mice, PO, day 21, first component 10 mg/kg, NIN 60 mg/kg, PID 200 mg/kg. The class given is in vivo, mouse. The procedure:
(§1) 70-100 uL of BLM solution (bleomycin 1-3 mg/kg) was administered to a lung of the acclimatized experimental animals using a catheter for 5 days or more. In accordance with the purpose of the test, the test drug was administered 7 days after BLM administration, and the drug was orally administered for 2 weeks until the 21st day of BLM administration.
This lung function evaluation is the most direct and important evaluation index that has the greatest influence on the symptoms and quality of life of patients with pulmonary fibrosis, and is an experiment that can most directly show the effect of improving lung function in an animal model of pulmonary fibrosis by measuring the oxygen concentration in the body.
On the 21st day, it was measured with a SpO2 measuring device (Berry, Veterinary Pulse Oximeter) via the abdominal side of the mouse, and the results are shown in Table 5 and FIG. 3.

Data set [2] in a line: Measurement of change in body weight in BLM animal model. The class given is in vivo, mouse. The arrangement: unit not given here. The conditions noted are these: BLM mice, first component 10 mg/kg, NIN 60 mg/kg, PID 200 mg/kg. The procedure:
as §1
The body weight was measured once every 0, 7, 14, 17, and 21 days for 3 weeks, and from the 14th day when the drug effect began to be noticeable after the administration, it was measured every 3 days.

The nature of data set [3]: Drug interaction clinical trial, combined administration. The conditions noted are these: Part 2, healthy adults; first component 150 mg enteric tablet. The class given is in vivo, human.
Experimental: To evaluate the drug interaction during the combined administration of the first component and the second component, a clinical trial was conducted on a total of 48 healthy adults, divided into two groups of 24 each for Part 1 and Part 2. The clinical trial was designed by a fixed sequence, three-phase, and one 150 mg enteric tablet of the first component was orally administered.
Subjects enrolled in Part 1 were sequentially given a single dose of 600 mg of the second component (PID) in the phase 1, a single dose of 150 mg of the first component in the phase 2. After that, washout progressed on the 3rd day, and 150 mg of the first component was administered multiple times for 3 days, and in the final phase 3, a single dose of the first component and the second components (NIN) was administered in combination.
In data set [4] the test system is animal model of pulmonary fibrosis. Nature of the data set: Inflammation cell count analysis in BALF. The class given is in vivo. The settings on record: BLM mice, PO, day 21; first component 10 mg/kg, NIN 60 mg/kg, PID 200 mg/kg. The procedure:
as §1
At the sacrifice on the 21st day of administration, BALF (Bronchoalveolar lavage fluid) cells obtained through airway washing of mice were diluted with 1.05×PBS and attached to a slide, and then the slide was immersed and removed for 30 seconds in the order of 1, 2, 3 diff quick stain solution, and stained. It was counted based on 500 cells. Macrophages are the largest in size, mononuclear, and stained blue. Neutrophils and eosinophils form polynuclear cells, but eosinophils are stained red with eosin and distinguished from neutrophils. Lymphocytes have very less cytoplasm and are small in size as monocytes.

For another data set, the system named is DHLF cell line. Nature of the data set: Non-clinical anti-fibrotic efficacy: Western blotting of TGF-β treated DHLF cell line. The class given is cell-based. The conditions noted are these: TGF-β 10 ng/ml, 72 hours. The procedure: 10 mM of the first component was diluted with DMSO so as to be to 100 uM. It was diluted with DMSO so as to be 10, 3, 1 uM, and 10 mM of the second component (NIN) was diluted with DMSO to be 50 nM.
A DHLF cell line (FGM™-2 Bullet Kit™, 10% FBS), which is a lung fibrosis cell line, was prepared, and cultured in a T75 Easy Flask Filter at 37° C. and 5% CO2 using FBM medium. The cultured DHLF cell line was treated with 10 ng/mL of TGF-β and the test drug alone or in combination, cultured for 72 hours, then the media was removed, the protein was extracted, and the extracted protein was quantified using the BCA Protein Assay Kit. Based on the quantitative value of each extracted protein, 10 to 20 ug of protein was subjected to Western blotting. The protein after running was transferred to the PVDF membrane. After TBS-T washing 3 times, each PVDF membrane was treated with 1 mL of ECL solution, and then the protein expression level was measured using an AI680 imager. Each band value was calculated as a numerical value normalized compared to β-actin through ImageJ, and is shown in Tables 2 and 3 and FIGS. 1 and 2 below.

The test system of data set [5] is animal model of pulmonary fibrosis. As to the kind of experiment: Measurement of total collagen content in lung (INSOLUBLE Collagen Assay). The class given is in vivo, mouse. The conditions noted are these: BLM mice, PO, day 21, n 9; first component 10 mg/kg, NIN 60 mg/kg, PID 200 mg/kg. Here is the method: as §1
In this experimental example, analysis was performed using INSOLUBLE Collagen Assay (Biocolor, S2000). After sacrifice on the 21st day, the cryopreserved lung tissue was pulverized by adding 100 uL of Fragmentation Reagent, and then, 100 uL of 37% HCl was added and incubated at 65° C. for 3 hours. The contents of the tube were shaken at 30 minute intervals to aid tissue disintegration. After centrifugation, the concentration was adjusted to 100 μL and collagen staining was proceeded to prepare a sample. Absorbance was measured at 560 nm.

Where [6] appears, read: Table 2, second component (NIN) 50 ng/ml alone.
Setting [7] is: Table 3, second component (NIN) 100 ng/ml alone.

Each structure is given as a SMILES string.

For the molecule `COC(=O)c1ccc2c(c1)NC(=O)/C2=C(\Nc1ccc(N(C)C(=O)CN2CCN(C)CC2)cc1)c1ccccc1` [Second component (NIN), Nintedanib], the “SpO2 Average value” in data set [1] stood at 79.8. In data set [1] (vs vehicle), the “SpO2 Differance” value amounted to 3.8 and the “SpO2 Rate of increase” value was determined as 5%. For the same molecule, the “change in body weight” value in data set [2] (Day 0) was determined as 0.0. For the same molecule, in data set [2] (Day 7), the “change in body weight” value was −10.1. Also, the “change in body weight” value in data set [2] (Day 14) is listed as −22.6. Moreover, the “change in body weight” value in data set [2] (Day 17) is given as −20.0. The “change in body weight” value in data set [2] (Day 21) is on record as −18.2. In addition, the “drug interaction when administered in combination with the first component vs alone” value in data set [3] is on record as “no clinically significant drug interaction”. Also, in data set [4], the “Eosinophil count in BALF” value worked out at 0, the “Lymphocyte count in BALF” value came out at 5, the “Macrophage count in BALF” value is reported as 53 and the “Neutrophil count in BALF” value came out at 10. Besides, the “total cell in BALF” value in data set [4] is on record as 69 10^4. In the data set on DHLF cell line (setting [6]), the “COL1A1 Relative value (based on control)” value is 4.60 and the “SMA-α Relative value (based on control)” value was 2.63. Further, in the data set on DHLF cell line (setting [7]), the “COL1A1 Relative value (based on control)” value was 2.81 and the “SMA-α Relative value (based on control)” value was 2.99. Besides, the “total collagen content in lung (hydroxyproline value, ratio compared with normal group)” value in data set [5] stood at 192.
